Key:
[1] = system: cyclin B degradation; assay: cyclin B degradation assay in HeLa cells; assay type: cell-based; details: 30 μL assay volume
Description: (§1) Biologically active 1,3-dioxanes have been identified in phenotypic assays in cell culture, zebrafish, and Xenopus laevis oocyte extract (FIG. 22).

[2] = molecular target: T1, HDAC1 (Homo sapiens, UniProt Q13547); assay: HDAC assay, [3H]acetate-incorporated histones with immunoprecipitated FLAG-tagged HDAC1; assay type: biochemical; details: calculated IC50, data in duplicate, at least two experiments; read-out: IC50 against HDAC1
T1 construct: made in house; host or cells: TAg-Jurkat cells, transient transfection, then immunoprecipitation
Procedure: (§2) Cell culture and Transfections. TAg-Jurkat cells were transfected by electroporation with 5 μg of FLAG-epitope-tagged pBJ5 constructs (as described in ref. 5c) for expression of recombinant proteins. Cells were harvested 48 h posttransfection.
HDAC assays. [^3H]Acetate-incorporated histones were isolated from butyrate-treated HeLa cells by hydroxyapatite chromatography (as described in Tong, et al. Nature 1997, 395, 917-921.) Immunoprecipitates were incubated with 1.4 μg (10,000 dpm) histones for 3 h at 37° C. HDAC activity was determined by scintillation counting of the ethyl acetate-soluble [^3H]acetic acid (as described in Taunton, et al., Science 1996, 272, 408-411). Compounds were added in DMSO such that final assay concentrations were 1% DMSO. IC50s were calculated using Prism 3.0 software. Curve fitting was done without constraints using the program's Sigmoidal-Dose Response parameters. All data points were acquired in duplicate and IC50s are calculated from the composite results of at least two separate experiments.

[3] = molecular target: T2, HDAC6 (Homo sapiens, UniProt Q9UBN7); assay: HDAC assay, [3H]acetate-incorporated histones with immunoprecipitated FLAG-tagged HDAC6 (HDAC6F); assay type: biochemical; set-up: made in house; host or cells: TAg Jurkat cells, transient transfection, anti-FLAG M2 immunoprecipitation; details: calculated IC50, data in duplicate, at least two experiments; read-out: IC50 against HDAC6
T2 sequence (Q9UBN7 1-1215): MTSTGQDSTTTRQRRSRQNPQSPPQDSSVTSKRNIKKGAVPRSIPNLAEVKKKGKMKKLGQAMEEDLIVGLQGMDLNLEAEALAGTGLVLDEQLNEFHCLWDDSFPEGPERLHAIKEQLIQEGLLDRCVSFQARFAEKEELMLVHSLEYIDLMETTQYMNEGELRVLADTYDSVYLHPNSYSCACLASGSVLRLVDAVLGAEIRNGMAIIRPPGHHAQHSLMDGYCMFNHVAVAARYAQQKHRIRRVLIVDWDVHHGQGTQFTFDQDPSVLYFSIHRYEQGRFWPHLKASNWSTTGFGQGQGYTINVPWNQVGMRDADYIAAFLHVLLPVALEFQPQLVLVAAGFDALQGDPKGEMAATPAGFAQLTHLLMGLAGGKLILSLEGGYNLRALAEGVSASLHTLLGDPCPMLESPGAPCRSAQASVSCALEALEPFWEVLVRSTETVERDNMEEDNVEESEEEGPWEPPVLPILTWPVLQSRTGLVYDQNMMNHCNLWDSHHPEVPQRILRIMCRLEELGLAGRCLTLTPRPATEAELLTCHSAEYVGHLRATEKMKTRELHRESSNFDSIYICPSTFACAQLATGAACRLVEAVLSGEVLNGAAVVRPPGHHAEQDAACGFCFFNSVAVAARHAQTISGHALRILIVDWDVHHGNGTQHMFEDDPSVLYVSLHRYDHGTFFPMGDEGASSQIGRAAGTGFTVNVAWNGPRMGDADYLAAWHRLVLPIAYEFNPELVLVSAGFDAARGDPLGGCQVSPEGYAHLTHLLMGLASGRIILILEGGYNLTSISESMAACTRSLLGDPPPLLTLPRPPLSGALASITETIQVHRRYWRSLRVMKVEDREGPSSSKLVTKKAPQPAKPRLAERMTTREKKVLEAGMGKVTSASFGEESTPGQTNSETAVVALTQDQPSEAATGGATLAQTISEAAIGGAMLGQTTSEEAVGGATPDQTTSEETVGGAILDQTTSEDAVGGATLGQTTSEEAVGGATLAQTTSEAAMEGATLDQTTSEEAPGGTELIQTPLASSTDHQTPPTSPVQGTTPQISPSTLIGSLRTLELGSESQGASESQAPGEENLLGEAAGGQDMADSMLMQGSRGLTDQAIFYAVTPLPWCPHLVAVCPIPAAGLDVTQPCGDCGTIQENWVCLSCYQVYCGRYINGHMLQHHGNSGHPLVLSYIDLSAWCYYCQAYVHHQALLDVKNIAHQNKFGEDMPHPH
Procedure: as §2
HDAC assays. […] Compounds were added in DMSO such that final assay concentrations were 1% DMSO. IC50s were calculated using Prism 3.0 software. Curve fitting was done without constraints using the program's Sigmoidal-Dose Response parameters. All data points were acquired in duplicate and IC50s are calculated from the composite results of at least two separate experiments.
Tubulin and MAPs were isolated from bovine brain as described [See http://mitchison.med.harvard.edu/protocols/tubprep.html]. Whole brain and fractions from phosphocellulose chromatography were blotted for HDAC6 and acetylated α-tubulin. Cultured hippocampal neurons from dissociated 1-day old rat brains were transfected with an enhanced green fluorescent protein (EGFP)-actin construct at 4-5 days using the calcium phosphate method [E. N. Star, D. J. Kwiatkowski and V. N. Murthy, Nat. Neurosci. […] K. Miranti and M. E. Greenberg, J. Neurosci. […] Transfected cultures were allowed to grow for at least 48 h before the addition of experimental compounds.
[^3H]Acetate-incorporated histones were isolated from butyrate-treated HeLa cells as described [J. Taunton, C. […] Immunoprecipitates were incubated with acetylated histones and HDAC activity determined by scintillation counting as described [J. Taunton, C. […] TDAC assays were performed with immunoprecipitates using MAP-stabilized microtubules polymerized from MAP-rich tubulin fraction as described [C. […] Reactions were incubated (2 h) at 37° C., then incubated on ice (15 min).

[4] = system: cyclin B degradation pathway; assay: Xenopus laevis oocyte extract assay of cyclin B degradation; details: 4 μL assay volume
Description: as §1

[5] = system: α-tubulin deacetylation; details: cited from earlier work
[6] = system: α-tubulin acetylation in the presence of ITSA1; details: cited from earlier work
[7] = molecular target: human FKBP12 (Homo sapiens, UniProt P62942); assay: small molecule microarray protein-binding assay; details: labeled protein
Procedure: In addition to phenotypic assays, over fifty protein-binding assays have been performed with the 1,3-dioxane library using small molecule microarrays (MacBeath et al. J. Am. Chem. Soc. 1999, 121, 7967-7968; Peterson et al. Proc. Natl. Acad. Sci. U.S.A. 2000, 97, 12965-12969). The microarrays were constructed by covalent attachment of […] of each stock solution to a glass slide using a contact printing robot. Labeled proteins were used to probe the microarray for small molecule partners.

T1 sequence (Q13547 whole entry): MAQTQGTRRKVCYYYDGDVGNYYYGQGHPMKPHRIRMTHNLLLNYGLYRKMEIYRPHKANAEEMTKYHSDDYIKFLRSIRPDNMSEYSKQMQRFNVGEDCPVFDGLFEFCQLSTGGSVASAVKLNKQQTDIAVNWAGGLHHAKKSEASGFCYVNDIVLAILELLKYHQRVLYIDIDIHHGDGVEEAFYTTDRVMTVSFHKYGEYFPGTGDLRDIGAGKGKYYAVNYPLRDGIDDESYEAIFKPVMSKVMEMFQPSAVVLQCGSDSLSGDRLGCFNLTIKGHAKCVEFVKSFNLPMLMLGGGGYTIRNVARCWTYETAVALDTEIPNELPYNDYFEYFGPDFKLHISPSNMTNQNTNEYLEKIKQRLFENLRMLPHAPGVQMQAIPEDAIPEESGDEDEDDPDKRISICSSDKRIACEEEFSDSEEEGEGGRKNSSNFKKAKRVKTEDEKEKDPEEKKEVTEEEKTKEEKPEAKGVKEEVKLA
Sequence of human FKBP12 (P62942 whole entry): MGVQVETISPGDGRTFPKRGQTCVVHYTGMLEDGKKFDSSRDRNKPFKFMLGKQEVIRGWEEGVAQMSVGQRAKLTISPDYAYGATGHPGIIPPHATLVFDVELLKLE

Compound: C[C@H]1[C@@H](CN2CCC3(CC2)OCCO3)OC(c2cccc(NS(=O)(=O)c3ccccc3)c2)O[C@H]1c1ccc(CO)cc1 (mixture of isomers) [compound 10, (±)-N-[3-[(4S,5R,6R)-4-(1,4-dioxa-8-azaspiro[4.5]dec-8-ylmethyl)-6-[4-(hydroxymethyl)phenyl]-5-methyl-1,3-dioxan-2-yl]phenyl-benzenesulfonamide]
- activity in HeLa cell cyclin B degradation assay [1]: inhibitory activity
- IC50 [2]: ~1 µM
- IC50 [3]: ~1 µM
- activity in Xenopus laevis oocyte extract cyclin B degradation assay [4]: Neither set of compounds was active in both assay systems

Compound: CC(=O)O[C@H]1C(=O)[C@@]2(C)[C@H]([C@H](OC(=O)c3ccccc3)[C@]3(O)C[C@H](OC(=O)[C@H](O)[C@@H](NC(=O)c4ccccc4)c4ccccc4)C(C)=C1C3(C)C)[C@]1(OC(C)=O)CO[C@@H]1C[C@@H]2O [taxol, Paclitaxel]
- effect on α-tubulin acetylation, stated as known [5]: increases α-tubulin acetylation due to direct stabilization of microtubules
- suppression by ITSA1, stated as known [6]: is not suppressed by ITSA1

Compound: (αS)-2-acetyloxy)-N-[[4-[(4R,5S,6S)-4-[4-(hydroxymethyl)phenyl]-6-[[4,5-d]phenyl-2-oxazolyl)thio]methyl]61,3-dioxan-2-yl]phenyl]methyl-propionamide [compound 14]
- binding to human FKBP12 on small molecule microarray [7]: bind to human FKBP12

Reference: patent US8178579B2, “Dioxanes and uses thereof” (President and Fellows of Harvard College, priority 2001, dated 2012)
